Among the test systems are KM20L2 colon; LXFL 529 NSCLC; DMS 114 small cell lung; XF 498 CNS; RXF-631 renal; DLD-1 colon; DMS 273 small cell lung; SNB-78 CNS; HOP-18 NSCLC.
Holding throughout (experiment): inhibition of tumour cell growth, NCI panel, 48 h

“And” between values parts separate entries of the source, which are not always exact repeats. Equal entries are not always repeated.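 Dose response: 5 concentrations. Exposure: 48 h. Format: 96-well plates. Endpoint: linear interpolation; highest concentration if not reached. GI50 marks 50% less growth. At the TGI there is no net growth.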 Where only a bound is given, the exact number is not on record here.

In the case of `O=C(NC(=Nc1ccccc1)SCSC(=Nc1ccccc1)NC(=O)c1ccco1)c1ccco1`, the TGI was greater than 100 µM in the test on KM20L2 colon; greater than 100 µM in the test on LXFL 529 NSCLC; greater than 100 µM in the test on DMS 114 small cell lung; 66.1 µM with XF 498 CNS; greater than 100 µM in the test on RXF-631 renal; greater than 100 µM in the test on DLD-1 colon. Besides, the TGI in the test on DMS 273 small cell lung and in the test on SNB-78 CNS was greater than 100 µM throughout.
As to `CCc1ccccc1NC(=O)C(=O)C(C#N)c1ccccc1Cl` (stereo unspecified), the TGI with KM20L2 colon, in the test on LXFL 529 NSCLC, in the test on HOP-18 NSCLC, in the test with DMS 114 small cell lung, in the test on XF 498 CNS and in the test on RXF-631 renal was greater than 100 µM in each case. Also, the TGI in the test with DLD-1 colon and in the test on SNB-78 CNS was greater than 100 µM in each case.
Turning to `O=C1C=C(Nc2ccccc2C(=O)CC(=O)C(=O)Nc2ccc(Cl)cc2)c2ccccc2C1=O`, the TGI with KM20L2 colon is greater than 100 µM; with LXFL 529 NSCLC, 42.6 µM; in the test with HOP-18 NSCLC it was 8.72 µM; in the test with DMS 114 small cell lung, 16.8 µM; in the test with XF 498 CNS, 28.6 µM; in the test on RXF-631 renal, greater than 80.8 µM. In addition, the TGI in the test on DLD-1 colon is 35.7 µM; with DMS 273 small cell lung, 31.1 µM; with SNB-78 CNS, 81 µM.
As to `O=C(COc1ccccc1Cl)N1N=C(c2ccccc2)CC1(O)c1ccccc1` (stereo unspecified), the TGI with KM20L2 colon is 29.6 µM; with LXFL 529 NSCLC, greater than 100 µM; in the test with XF 498 CNS it was 35.5 µM; in the test with DLD-1 colon, 53.7 µM; in the test on DMS 273 small cell lung, 31.8 µM; with SNB-78 CNS, 43.2 µM.
As to `COc1ccc(Nc2nc3cc(C(F)(F)F)ccc3nc2-c2ccccc2)cc1OC`, the TGI with LXFL 529 NSCLC is greater than 100 µM; in the test with DMS 114 small cell lung it was 41.4 µM; in the test with XF 498 CNS, 11.2 µM; in the test with DLD-1 colon, greater than 100 µM; in the test with DMS 273 small cell lung, 21.8 µM; with SNB-78 CNS, 66.7 µM.
Turning to `c1ccc2c(c1)SC(=C1Sc3ccccc3S1)S2`, the TGI with KM20L2 colon, in the test with LXFL 529 NSCLC, in the test on HOP-18 NSCLC, in the test with DMS 114 small cell lung, with XF 498 CNS and in the test on RXF-631 renal was greater than 100 µM each time. Besides, the TGI in the test with DLD-1 colon, with DMS 273 small cell lung and in the test with SNB-78 CNS was greater than 100 µM in each case.
As for `OCC1OC2c3ccccc3COC2C1OCc1ccccc1` (stereo unspecified), the TGI in the test on KM20L2 colon, in the test with LXFL 529 NSCLC, in the test with HOP-18 NSCLC, in the test with DMS 114 small cell lung, with XF 498 CNS and in the test with RXF-631 renal was greater than 100 µM in each case. Also, the TGI with DLD-1 colon and with SNB-78 CNS was greater than 100 µM throughout.
`O=C1C(=c2ccc(=C3C(=O)c4ccc([N+](=O)[O-])cc4[N+]3=O)cc2)N([O-])c2cc([N+](=O)[O-])ccc21`: the GI50 in the test on KM20L2 colon, in the test on LXFL 529 NSCLC, in the test on DLD-1 colon and in the test with DMS 273 small cell lung was greater than 100 µM in each case. Moreover, the TGI in the test on KM20L2 colon, in the test on LXFL 529 NSCLC, in the test with HOP-18 NSCLC, with DLD-1 colon, in the test on DMS 273 small cell lung and in the test on SNB-78 CNS was greater than 100 µM in each case.
In the case of `N#CC1C[C@@H]2CC3(CCC2CN1C(=O)c1ccccc1)OCCO3` (stereo partly specified), the TGI in the test with KM20L2 colon, in the test on LXFL 529 NSCLC, with HOP-18 NSCLC, in the test with DMS 114 small cell lung, in the test on XF 498 CNS and in the test with DLD-1 colon was greater than 100 µM throughout. Moreover, the TGI in the test with DMS 273 small cell lung and with SNB-78 CNS was greater than 100 µM in each case.
With `[O-]/N=[N+](/[O-])C1CCCCC1=[N+]1CCOCC1` (stereo unspecified), the TGI with LXFL 529 NSCLC, with DMS 114 small cell lung, in the test on XF 498 CNS and with SNB-78 CNS was greater than 100 µM each time.
Take `COc1cccc(C=O)c1C(=O)c1cc(O)ccc1O`: the TGI is greater than 100 µM in the test with KM20L2 colon; 76.5 µM with HOP-18 NSCLC; greater than 48.2 µM in the test on DMS 114 small cell lung; greater than 100 µM in the test with XF 498 CNS; 30.3 µM in the test with DLD-1 colon; greater than 100 µM with DMS 273 small cell lung. Further, in the test with SNB-78 CNS, the TGI is greater than 60.8 µM.
Take `C/C(=N\NC(=S)N1CCN(c2ccccn2)CC1)c1ccccn1`: the TGI in the test on LXFL 529 NSCLC was 14.2 µM; with DMS 114 small cell lung, 0.335 µM and 0.103 µM; in the test on DLD-1 colon it was 15.2 µM; in the test with DMS 273 small cell lung, 15 µM; with SNB-78 CNS, 21.5 µM. For the same molecule, in the test with XF 498 CNS, the GI50 is 0.0236 µM.
With `Cc1cc(=O)[nH]c(CNC(=O)c2ccc3ccccc3c2)n1`, the TGI with KM20L2 colon, in the test on LXFL 529 NSCLC, in the test with HOP-18 NSCLC, in the test with DMS 114 small cell lung, in the test on XF 498 CNS and in the test with RXF-631 renal was greater than 100 µM throughout. Moreover, the TGI in the test with DLD-1 colon and with DMS 273 small cell lung was greater than 100 µM in each case.
As to `O=[N+]([O-])c1cc(-c2nc(=S)[nH][nH]2)ccc1O`, the TGI with KM20L2 colon was greater than 100 µM; in the test with LXFL 529 NSCLC it was greater than 100 µM; in the test with DMS 114 small cell lung, 86.8 µM; in the test with RXF-631 renal, greater than 100 µM; in the test on DLD-1 colon it was greater than 100 µM; in the test on DMS 273 small cell lung it was greater than 100 µM. The TGI in the test on SNB-78 CNS is greater than 100 µM.
Consider `COc1ccc2c(c1)[n+]([O-])c(-c1cccc(Cl)c1)c(N)[n+]2[O-]`, for which the TGI in the test on KM20L2 colon was greater than 100 µM; in the test with HOP-18 NSCLC it was greater than 100 µM; in the test on DMS 114 small cell lung, 65.8 µM; with XF 498 CNS, greater than 100 µM; with DLD-1 colon it was greater than 100 µM; in the test on DMS 273 small cell lung, greater than 100 µM. The TGI in the test with SNB-78 CNS was greater than 100 µM.
As to `O=C(O)CN(c1ccccc1)S(=O)(=O)c1cccc([N+](=O)[O-])c1`, the TGI in the test on KM20L2 colon, with LXFL 529 NSCLC, in the test on HOP-18 NSCLC, in the test with XF 498 CNS, with DLD-1 colon and in the test on DMS 273 small cell lung was greater than 100 µM throughout.
Regarding `O=C(C=Nc1ccccc1C(=O)[O-])c1cccs1.O=C(C=Nc1ccccc1C(=O)[O-])c1cccs1.[Ni+2]`, in the test with KM20L2 colon, the TGI was greater than 100 µM.
On to `CC1CCC2C(C)C(=O)OC3OC4(C)CCC1C32OO4` (stereo unspecified), for which the TGI in the test with KM20L2 colon, in the test with LXFL 529 NSCLC, with HOP-18 NSCLC, with DMS 114 small cell lung, in the test with XF 498 CNS and in the test with RXF-631 renal was greater than 100 µM each time. For the same molecule, the TGI in the test with DMS 273 small cell lung and in the test on SNB-78 CNS was greater than 100 µM in each case.
Turning to `COC(=O)C1CSC(c2csc(CCN)n2)=N1` (stereo unspecified), the TGI with KM20L2 colon, in the test with LXFL 529 NSCLC, with HOP-18 NSCLC, in the test with DMS 114 small cell lung, in the test with XF 498 CNS and in the test with DMS 273 small cell lung was greater than 100 µM in each case. The same molecule had a TGI in the test on SNB-78 CNS greater than 100 µM.
Turning to `CC(=O)c1ccccc1NC(=O)C(=O)C(C(=O)c1ccc2ccccc2c1)C1OC(=O)c2ccccc21` (stereo unspecified), the TGI with KM20L2 colon stood at 94 µM; in the test on LXFL 529 NSCLC, 26.3 µM; with HOP-18 NSCLC, 38.7 µM; with DMS 114 small cell lung, 43 µM; in the test with XF 498 CNS, 18.1 µM; in the test on DLD-1 colon, 32.3 µM. Further, the TGI stood at 44.5 µM in the test with DMS 273 small cell lung and 84.8 µM in the test with SNB-78 CNS.
For the molecule `CN1C(=O)CC2(C)c3cc(O)cc(Br)c3N(C)C12` (stereo unspecified), the TGI in the test on KM20L2 colon, in the test on LXFL 529 NSCLC, in the test on HOP-18 NSCLC, with DMS 114 small cell lung, with XF 498 CNS and with SNB-78 CNS was greater than 100 µM each time.
With `Nc1nc(N)c(CCCCc2ccccc2)c(C=O)n1`, the TGI in the test on KM20L2 colon is 90 µM; in the test with HOP-18 NSCLC, 89.2 µM; in the test with DMS 114 small cell lung, 34.4 µM; in the test with RXF-631 renal, greater than 100 µM; with DLD-1 colon it was 46.2 µM; in the test with DMS 273 small cell lung, 39.1 µM. Moreover, the TGI in the test with SNB-78 CNS was determined as 81.6 µM.
Turning to `NC1N=Nc2ccccc21` (stereo unspecified), the TGI with KM20L2 colon, in the test with LXFL 529 NSCLC, with DMS 114 small cell lung, in the test on XF 498 CNS, in the test on RXF-631 renal and with DLD-1 colon was greater than 100 µM each time. Also, in the test with DMS 273 small cell lung, the TGI is greater than 100 µM.
`COC(=O)[C@H](CC(C)C)NC(=O)[C@H](Cc1ccccc1)N1CC2C=CC1C2` (stereo partly specified): the TGI in the test with KM20L2 colon, with LXFL 529 NSCLC, in the test with HOP-18 NSCLC, with DMS 114 small cell lung, with XF 498 CNS and in the test with DMS 273 small cell lung was greater than 100 µM in each case.
In the case of `COC(=O)Cc1c([C@@]2(C)CCCC(C)(C)C2)ccc2c1C(=O)OC2`, the TGI in the test with LXFL 529 NSCLC stood at 27.2 µM; in the test with HOP-18 NSCLC it was 47.1 µM; with DMS 114 small cell lung, 20.4 µM; with RXF-631 renal, 29.4 µM; with DLD-1 colon, 12.2 µM; with DMS 273 small cell lung, 21 µM. In the test on SNB-78 CNS, this molecule registered a TGI of 37.3 µM.
With `CC1(C)NC(=O)N(CCCCCCN2C(=O)NC(C)(C)C2=O)C1=O`, the TGI with KM20L2 colon, with LXFL 529 NSCLC, in the test on HOP-18 NSCLC, in the test with DMS 114 small cell lung, in the test on DLD-1 colon and in the test on DMS 273 small cell lung was greater than 100 µM each time. The molecule also gave a TGI in the test with SNB-78 CNS greater than 100 µM.
